Tests used:
[1] = Ionizable cationic lipid in plasma, liver and spleen of NHP 24 hours after tLNP, LC/MS/MS; assay type: in vivo, cynomolgus macaques
Description: Samples were taken from cynomolgus macaques that had been intravenously administered either BF1 or F5 tLNPs (two each) at a dosage of 3 mg mRNA/kg in the preceding example. The tLNPs were conjugated to anti-C05 mentioned in Example 2 as the targeting moiety. 24 hours after administration the animals were sacrificed and plasma, liver, and spleen tissue collected from two animals in each group and assessed by mass spectrometry for presence of these ionizable cationic lipids in order to assess biodegradability and biodistribution of these ionizable cationic lipids.
Briefly, plasma was stabilized for mass spectrometry by addition of 10 μL of formic acid per mL of K2EDTA plasma. Spleen and liver tissue were homogenized in 19 parts of homogenization buffer (50:40:10 0.1% formic acid in 1:1 methanol:acetone/10 mM ammonium formate with 0.2% formic acid/dimethylformamide (DMF)) to 1 part tissue (v/w) using a Geno/Grinder® (SPEX® SamplePrep) set to two minutes at 1500 rpms.
Calibration curves and quality control samples were prepared by spiking control matrix (plasma or homogenate) with CICL1 or ALC-0315 in DMF. The extraction was performed on wet ice by adding 300 μL of crashing solvent (0.1% formic acid in 1:1 methanol:acetonitrile) to 25 μL of sample to which 50 μL of internal standard was added (1:1 isopropyl alcohol:water). The extracts were mixed for four minutes at 1500 rpms and then centrifuged at 3000×g for ten minutes. 200 μL of supernatant was transferred to a clean 96 well plate for LC/MS/MS analysis.
Chromatography was performed on a Waters XBridge BEH C8 column (130 Å, 2.5 μm, 2.1×30 mm) using the following gradient. Mobile phase A (10 mM ammonium format in water with 0.2% formic acid) was held at 20% for 0.3 minutes before being reduced to 5% over […]. This condition was held for one minute before being returned to 80% B (0.1% formic acid in 1:1 methanol:acetonitrile) in 0.1 minutes. The column was then held at 80% B for 1.4 minutes. LC flow rate was held at 0.5 mL/min and the autosampler held at 2-8° C. The mass spectrum was obtained with a triple quadrupole apparatus using atmospheric pressure ionization (Sciex).
Quantitation was performed using a 1/X2 quadratic regression using the peak area for transition 1013.6→968A (CICL1) or 766.6-748.4 (ALC-0315) over peak area of transition 1040.6→995.4 of the internal standard.

[2] = Time course of ionizable cationic lipid in plasma, spleen and liver of mice, LC-MS; assay type: in vivo; details: for plasma levels of lipid at 7 days: 2 mg/kg tLNP (F9 or BF1) targeted to mouse CD8, FIG. 13C
Description: To obtain more detailed data a similar experiment was conducted in mice where it was possible to obtain a time course of disappearance of the ionizable cationic lipid and the encapsulated mRNA as well. Mice were intravenously administered 2 mg/kg tLNP of composition BF1 (comprising ALC-0315) or F9 (comprising CICL1) targeted to mouse CD8 and encapsulating an anti-human CD19 CAR, and monitored through 7 days. At each timepoint, 3 mice were sacrificed, and liver, spleen, and plasma were processed for LC-MS-based detection of lipid concentration and digital PCR detection of the mRNA. In plasma, mRNA level was normalized to a known amount of mRNA spiked in a control. In spleen and liver mRNA level was normalized to mRNA for the housekeeping gene GAPDH.

[3] = Tolerability in non-human primates: liver enzymes ALT and AST; assay type: in vivo; details: ionizable cationic lipid in F9 tLNP, second NHP study
Description: A second study was conducted with F9 tLNP to evaluate the tolerability and engineering efficiency of (1) a single administration of a CD5-targeted tLNP (humanized 5D7 targeting antibody) with an mRNA payload encoding an anti-CD19 CAR, (2) a single administration of a CD8-targeted tLNP (chimeric RPA-T8 targeting antibody) with an mRNA payload also encoding the anti-CD19 CAR, and (3) repeat administration (3 doses) of the CD5-targeted tLNP. The CD5-targeted tLNP was administered as a single dose at 3.0 mg/kg (Group 2, n=2) or as a repeat dose of 1.0 mg/kg at 72-hour intervals (Q72h) for three doses (Group 5, n=2). […] As a control, PBS was administered (Group 1, n=1). All tLNP tested in the second study utilized composition F9. […] Clinical observations, clinical pathology, and toxicology biomarkers were evaluated to assess safety and tolerability. Pharmacological assessment was carried out by flow cytometry detection of anti-CD19 CAR in immune cell subsets in peripheral blood and tissues (spleen, bone marrow, lymph node, and liver).
A third study in NHP with F9 tLNP targeted to C08 and encapsulating an mRNA encoding an anti-CD19 CAR was also conducted and the single dose liver enzyme results of all three studies (doses ranging from 3.5 to 3.0 mg mRNA/kg) compiled into single plots of AST and ALT levels for a more global assessment (FIG. 12K).

[4] = biological target: signal regulatory protein α (SIRPα) (Homo sapiens, UniProt P78324); details: cited from earlier work
Sequence of signal regulatory protein α (SIRPα) (P78324 31-504): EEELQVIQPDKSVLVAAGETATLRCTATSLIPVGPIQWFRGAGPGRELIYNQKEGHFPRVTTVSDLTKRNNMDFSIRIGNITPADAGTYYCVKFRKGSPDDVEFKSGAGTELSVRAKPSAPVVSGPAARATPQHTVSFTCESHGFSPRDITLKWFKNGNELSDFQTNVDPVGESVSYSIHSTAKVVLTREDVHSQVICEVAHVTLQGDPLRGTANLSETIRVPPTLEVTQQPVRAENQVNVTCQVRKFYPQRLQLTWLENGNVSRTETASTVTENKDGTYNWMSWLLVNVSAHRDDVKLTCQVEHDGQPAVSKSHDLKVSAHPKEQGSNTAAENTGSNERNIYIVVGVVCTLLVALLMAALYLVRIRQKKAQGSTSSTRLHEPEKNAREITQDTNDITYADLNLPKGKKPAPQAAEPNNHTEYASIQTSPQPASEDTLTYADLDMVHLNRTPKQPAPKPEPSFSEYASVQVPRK

Compound | concentration remaining in blood, fold greater (than CICL1) ([1]; 24 hours after 3 mg mRNA/kg tLNP, FIG. 13B) | plasma levels of lipid at 7 days [2] | lipid levels in spleen and liver throughout the 7 days ([2]; FIGS. 13D-E) | tolerability [3] | concentrations in blood, liver, and spleen relative to each other ([1]; 24 hours) | spleen concentration, fold less than for ALC-0315 ([1]; 24 hours) | amount of lipid present in blood, liver, and spleen ([1]; 24 hours after 3 mg mRNA/kg tLNP) | biodegradability compared with ALC-0315 ([1]; clearance data) | time after administration by which levels were falling in the spleen ([2]; FIG. 13D) | time after administration by which levels were falling in the liver ([2]; FIG. 13E) | binding affinity to SIRPα, fold stronger than full-length CD47 protein [4]
CCCCCCCCC(CCCCCC)C(=O)OCCCCCCN(CCCCO)CCCCCCOC(=O)C(CCCCCC)CCCCCCCC (stereo not drawn) [ALC-0315, [(4-Hydroxybutyl)azanediyl)di(hexane-6,1-diyl) bis(2-hexyldecanoate), reference compound] | about 6 fold | still detected | remained almost unchanged | – | – | – | – | – | – | – | –
CCCCCCCCC(=O)OCC(COC(=O)CCCCCCCC)CC(=O)OCCN(CCOC(=O)CC(COC(=O)CCCCCCCC)COC(=O)CCCCCCCC)C(=O)OCCN(C)C [CICL1] | – | returned to baseline | – | well tolerated | ≤ 2 fold | ~35 fold | only very small amounts | much more biodegradable | ≤ 1 h | ≤ 2 h | –
NYTCEVTELSREGKTVIELK (SEQ ID NO: 3) [CD47 peptide] | – | – | – | – | – | – | – | – | – | – | 10 fold

Source: patent US20260263618A1, “LIPID NANOPARTICLE FORMULATIONS AND COMPOSITIONS” (CAPSTAN THERAPEUTICS, INC., priority 2023, published 2026)
